{"source": "patent US20190008773A1", "about": "“MAGNETIC FIELD SENSITIVE NANO COMPLEX AND METHOD FOR MANUFACTURING THE SAME” (GWANGJU INSTITUTE OF SCIENCE AND TECHNOLOGY, priority 2017, published 2019)", "tested_on": "cell", "experiment": "cytotoxicity in a physiological environment (FIG. 8A)", "type": "cell-based", "conditions": "no alternating magnetic field"}
{"compound": "COc1cccc2c1C(=O)c1c(O)c3c(c(O)c1C2=O)C[C@@](O)(C(=O)CO)C[C@@H]3O[C@H]1C[C@H](N)[C@H](O)[C@H](C)O1", "note": "[free DOX, doxorubicin]", "values": [{"measurement": "non-specific cytotoxicity", "result": "high"}]}
